Tests used:
[1] = system: TA3/St murine mammary carcinoma cells; experiment: Proliferation in monolayer (anchorage-dependent) culture; type: cell-based, mouse; settings: 100-150 μg/ml
[2] = system: MCF-7/Adr drug-resistant human mammary carcinoma cells; experiment: Drug resistance, viable cell number (Coulter Counter); type: cell-based; settings: MCF-7/Adr; decoys introduced by adenovirus infection, or siRNA (FIG. 18)
Procedure: FIG. 15A is a line graph showing that MCF-7/Adr drug-resistant human mammary carcinoma cells grown in culture with hyaluronan oligomers are sensitized to doxorubicin. MCF-7/Adr cells were obtained from MCF-7 cells by being selected for drug resistance by exposure to doxorubicin. Cells were grown for 24 h in 24-well plates in RPMI 1640 medium containing Glutamex 1 plus 10% fetal bovine serum at 37° in 5% CO2. Various concentrations of doxorubicin (doxo) were then added and the cells incubated for another 72 h, followed by a further 24 h in the presence or absence of 100 μg/ml hyaluronan oligomers (o-HA). The oligomers were a mixed population of 3-8 repeating disaccharides in length. The cells were then harvested and the number of viable cells was determined in a Coulter Counter.
FIG. 18 is a set of line graphs showing a resulting cell number, on the ordinate, following drug treatment with doxorubicin, concentration (log) in nM on the abscissa, showing restoration of drug sensitivity (inhibition of drug resistance) by HA oligomers, soluble hyaluronan-binding decoys, and CD44 siRNA, using derivatives of MCF-7 cells as in FIG. 17 above.
Therefore, the effect of co-treatment with hyaluronan oligomers on drug resistance was examined in an established system, i.e. MCF-7/Adr human mammary carcinoma cells that have been selected for resistance to doxorubicin (Fairchild, C. R., et al., Cancer Res 47, 5141-8, 1987). First, the effect of hyaluronan oligomers on resistance to doxorubicin in the MCF-7/Adr cells versus the relatively drug-sensitive, parental MCF-7 cell line was compared.

[3] = system: TA3/St murine mammary carcinoma cells; settings: soft agar; TA3/St transfectant clones over-expressing the protein; cited from earlier work
[4] = system: TA3/St murine mammary carcinoma cells; experiment: Apoptosis assay in suspension culture; type: cell-based, mouse; settings: 24 hours in suspension; 150 μg/ml controls, 50 nM wortmannin
Procedure: FIG. 3 is a bar graph showing induction of apoptosis by hyaluronan oligomers under anchorage-independent conditions. TA3/St murine mammary carcinoma cells were grown in suspension in serum-free medium for 24 hours in the presence of 50 or 150 μg/ml hyaluronan oligomers (o-HA), 150 μg/ml of ˜80 kDa molecular weight hyaluronan polymer (HA-80), 150 μg/ml chitin oligomers, 150 μg/ml chondroitin sulfate (CS), or 50 nM wortmannin (WM), a specific inhibitor of mammalian PI3 kinase (phosphoinositide 3-kinase). Apoptotic cells were then analyzed and counted as described in the EXAMPLES section. Results represent the average of two experiments and are expressed as percentage of total cells±range.
(§1) Treatment of tumor cells and preparation of cell lysates for biochemical assays. TA3/St and HCT116 cells were grown for 72 hours in 14 cm culture dishes, then harvested by trypsinization, washed in PBS and suspended in DMEM containing 10% FBS. Two million cells from these cultures were added to each well of non-adherent, Ultra-low cluster plates and incubated in suspension at 37° C. for a further 72 hours. […]
Apoptosis assay. […] Viable cells (green) and apoptotic cells containing fragmented nuclei (red) were counted and the percentage of apoptotic cells was then calculated.

[5] = system: caspase-3 activity in TA3/St murine mammary carcinoma cells; experiment: Caspase-3 assay; type: cell-based, mouse; settings: 150 μg/ml
Procedure: FIG. 4A is a bar graph showing stimulation of caspase-3 activity in TA3/St murine mammary carcinoma cells by hyaluronan oligomers. Cells were grown in suspension in serum-free medium for 24 hours in the presence of 10, 50 or 150 μg/ml hyaluronan oligomers (o-HA), 150 μg/ml chondroitin sulfate (CS), or 20 μM LY294002 (LY), a specific inhibitor of mammalian PI3 kinase, and then analyzed for caspase-3 activity. Results are presented as the mean of specific activity (absorbance at 405 nm/mg/90 min)±S.D. for three independent experiments.
as §1, with “hours. The cells from each well were then collected, washed in PBS, suspended in 5 ml DMEM medium containing 2% bovine serum albumin (Cohn Analog, Sigma), re-plated in the cluster plates, and incubated in suspension at 37° C. for 96 hours; similar results were obtained with pre-incubations of 24-96 hours for most measurements. The hyaluronan oligomers or other reagents were then added and the cells incubated for another 24 hours in suspension.” for “hours.”

[6] = system: caspase-3 activity in HCT116 human colon carcinoma cells; experiment: Caspase-3 assay; type: cell-based; settings: HCT116, 150 μg/ml
Procedure: Treatment of tumor cells and preparation of cell lysates for biochemical assays. TA3/St and HCT116 cells were grown for 72 hours in 14 cm culture dishes, then harvested by trypsinization, washed in PBS and suspended in DMEM containing 10% FBS. Two million cells from these cultures were added to each well of non-adherent, Ultra-low cluster plates and incubated in suspension at 37° C. for a further 72 hours. The cells from each well were then collected, washed in PBS, suspended in 5 ml DMEM medium containing 2% bovine serum albumin (Cohn Analog, Sigma), re-plated in the cluster plates, and incubated in suspension at 37° C. for 96 hours; similar results were obtained with pre-incubations of 24-96 hours for most measurements. The hyaluronan oligomers or other reagents were then added and the cells incubated for another 24 hours in suspension.
The cells treated as above were harvested by centrifugation at room temperature. The pellets were washed twice in PBS, then lysed in buffer containing 1% Nonidet P-40 and protease inhibitors. Cell lysis was achieved by vortexing for three cycles of 15 sec at high speed followed by cooling on ice. The lysate was centrifuged at 12,000×g for 15 min at 4° C. in an Eppendorf 5415R centrifuge. After measuring the protein content of the supernatant, it was flash-frozen in liquid nitrogen and stored at −80° C. until use in the assays below.
Caspase-3 assay. […]

[7] = system: α-isoform of PI3 kinase in TA3/St cells; experiment: PI3 kinase α isoform assay (immunoprecipitated); type: cell-based, mouse; settings: 150 μg/ml polysaccharide controls, 50 nM wortmannin
Procedure: (§3) PI3 kinase assay. For assay of total PI3 kinase, 250 ng of cell lysate protein were used per assay. Assays were performed in a 50 μl reaction mixture containing 0.001% Nonidet P-40, 159 μM ATP, 25 mM MgCl2, 5 mM EGTA, 150 μM ATP, 25 μCi of [γ-^32P] ATP, 125 mM MOPS, pH 7.0, and 0.2 mg/ml sonicated lipids containing phosphatidyl serine, phosphatidyl inositol and phosphatidyl inositol-4,5 bisphosphate in a 1:1:1 (v:v:v) ratio in sonication buffer (25 mM MOPS, pH 7.0, 1 mm EGTA) (Whitman, M. et al (1985) Nature 315, 239-242; Susa, M., et al. (1992) J Biol Chem 267, 22951-22956; Misra, S., et al. (1998) J Biol Chem 273, 26638-26644). The reactions were carried out at 37° C. for 20 min and stopped by addition of 100 μl of CH3OH/1M HCl (1:1). […] The organic layers were combined, dried under nitrogen, and analyzed by thin layer chromatography. ^32P-labeled phosphoinositides were resolved in water:acetic acid:n-propanol (34:1:65) and detected by autoradiography. ^32P incorporation into phosphatidylinositol 3,4,5-phosphate (PIP3) was quantified by liquid scintillation counting of thin layer chromatography spots scraped into and eluted in scintillation fluid.
(§4) For assay of specific PI3 kinase isoforms, whole cell lysates were incubated with antibody against the particular isoform plus protein A-Sepharose. PI3 kinase activity of the enzyme immobilized on beads was then measured as described above.

[8] = system: α-isoform of PI3 kinase in HCT116 cells; experiment: PI3 kinase α isoform assay (immunoprecipitated); type: cell-based, human; settings: same reagents as FIG. 5D
Procedure: as §3, §4

[9] = system: phosphorylated Akt in TA3/St cells; experiment: Akt phosphorylation, Western blotting; type: cell-based, mouse; settings: 150 μg/ml controls, 1:50 antibody to CD44 (FIG. 6C)
Procedure: FIG. 6A is a bar graph showing inhibition of Akt phosphorylation by hyaluronan oligomers in TA3/St murine mammary carcinoma cells treated in suspension with 1-150 μg/ml hyaluronan oligomers (o-HA) or 150 μg/mlchondroitin sulfate (CS). Cell lysates were then analyzed by Western blotting for phosphorylated Akt and quantified by densitometry. Results in A and B are presented as means of three independent experiments and expressed as percent untreated±S.D.
FIG. 6C is a representation of a Western blot of phosphorylated Akt from TA3/St cells: 1. untreated; 2. 150 μg/ml chondroitin sulfate; 3. 150 μg/ml hyaluronan polymer (mol. wt. ˜80 kDa); 4. 150 μg/ml chitin oligomers; 5. 50 μg/ml hyaluronan oligomers; 6. 150 μg/ml hyaluronan oligomers; 7. 50 nM wortmannin; 8. 20 μM LY294002; 9. 1:50 dilution of antibody against CD44. Results are representative of three experiments. Similar results to those in FIG. 6C were obtained also with HCT116 cells.
Treatment of tumor cells and preparation of cell lysates for biochemical assays. TA3/St and HCT116 cells were grown for 72 hours in 14 cm culture dishes, then harvested by trypsinization, washed in PBS and suspended in DMEM containing 10% FBS. […]
(§2) Immunoblotting. […] Immunoreactive bands were detected by enhanced chemiluminescence and the sizes of proteins were estimated using prestained molecular weight standards. Immunoreactive bands were quantified by densitometry. […]

[10] = system: PTEN in TA3/St cells; experiment: PTEN expression, immunoblotting; type: cell-based, mouse; settings: similar amounts (150 μg/ml) of controls
Procedure: FIG. 8A is a bar graph showing stimulation of expression of PTEN, a tumor suppressor, by HA-oligomers, in TA3/St murine mammary carcinoma cells. Cells were treated in suspension and then processed for immunoblotting of PTEN. The bars represent densitometric quantification of immunoblots after treatment with 10-150 μg/ml hyaluronan oligomers (o-HA) or 150 μg/ml chondroitin sulfate (CS). Results are presented as means of three independent experiments and expressed as percent untreated±S.D.
FIG. 8C is an immunoblot using TA3/St murine mammary carcinoma cells treated as in lanes: 1. untreated; 2. 150 μg/ml chondroitin sulfate; 3. 150 μg/ml chitin oligomers; 4. 150 μg/ml hyaluronan polymer (mol. wt. ˜80 kDa); 5. 50 μg/ml hyaluronan oligomers; 6. 150 μg/ml hyaluronan oligomers. Results are representative of three experiments. Similar results to FIG. 8C were obtained also with HCT116 cells.
PTEN levels in TA3/St mouse mammary carcinoma cells were measured by Western blotting; values were obtained by scanning the blots. HA oligomers (oligo) at 50-100 μg/ml caused ˜6-fold increase in PTEN levels compared to untreated control. […]
as §2

Row | Substance | effect on proliferation [1] | reversal of doxorubicin resistance [2] | inhibition of anchorage-independent growth [3] | effect on apoptosis [4] | effect on caspase-3 activity [5] | effect on caspase-3 activity [6] | effect on PI3 kinase-α activity ([7]; 20 μM LY294002, 1:50 antibody to CD44) | effect on PI3 kinase-α activity ([7]; 20 μM LY294002, 1:50 antibody to CD44, listed as chondroitin sulfate (CS)) | effect on PI3 kinase-α activity [8] | effect on phosphorylation of Akt [9] | effect on PTEN levels [10] | effect on PTEN levels ([10]; listed as Chondroitin sulfate (CS))
1 | soluble CD44: hyaluronan-binding decoy, over-expressed in cells by transfection or adenovirus | Neither HA oligomers nor soluble CD44 significantly affect proliferation | reversed | effective inhibitor |  |  |  |  |  |  |  |  | 
2 | chondroitin sulfate |  |  |  | do not have significant effects | no significant effect | no significant effect | Neither hyaluronan polymer, nor chondroitin sulfate, nor chitin oligomers had a significant effect | had no effect | Neither hyaluronan polymer, nor chondroitin sulfate, nor chitin oligomers had a significant effect | not caused | do not stimulate PTEN levels | did not increase PTEN levels

From patent US8648047B2, “Methods and compositions for inhibition of multi-drug resistance by hyaluronan oligomers” (Tufts University, priority 2002, dated 2014)
